Literature values in US20070218050A1, “Methods for treatment and prevention of otitis media using chemical penetration enhancers to facilitate transmembrane drug delivery into the middle ear” (Piedmont Pharmaceuticals LLC, priority 2005, published 2007).

What was measured:
[1] = concentrations at or in excess of 50% v/v, applied to the middle ear; Vassalli et al. 1988
[2] = round window membrane of the inner ear and cochlea; Marsh and Tom 1989

Q: For `CC(O)CO` (centres unmarked) [propylene glycol], which “Damage to the middle ear” value [1] is on record?
A: produces inflammation-related damage to the middle ear

Q: What about the Inner ear ototoxicity [2] of the same molecule?
A: implicated in inner ear ototoxicity
